Measurements reported in US20210162050A1, “TOPICAL FORMULATIONS BASED ON IONIC SPECIES FOR SKIN TREATMENT” (The Regents of the University of California, priority 2016, published 2021).

Experiments:
[1] = Octanol-water partitioning coefficients of cation paired hyaluronic acid (HA); format: physicochemical; conditions: cation paired with HA
Description: 5 mL ddH2O may be mixed overnight at room temperature with 5 mL octanol. A complex containing a macromolecular anion complexed with sodium ions or with cations with alkyl chains is then added to the mixture and again allowed to mix overnight at room temperature in the dark. After overnight incubation, the solution is centrifuged to separate the octanol layer and water layer. The concentration of the macromolecular anion present in each layer is quantified by UV-Vis spectroscopy, or fluorescence spectroscopy, using, for example, a SAFIRE, XFLUOR4, V4.50 microplate reader (Tecan Group Ltd, Morrisville, N.Y.). For detection of siRNA, the fluorescence detection may be performed at an excitation of 485 nm and an emission of 520 nm, and the method may be validated for linearity, accuracy, and precision. Log Po/w may be calculated as the logarithm of the ratio of fluorescence in the octanol layer compared to the water layer.
Cation paired HA was prepared according to methods described in Example 1.

HEKa cells = assay: Biocompatibility in cell culture, MTT Cell Proliferation Assay; format: cell-based, human; conditions: equal concentrations, 4 hours; differences not statistically significant (p >0.05)
Description: All cell culture materials were acquired from Life Technologies (Grand Island, N.Y.). Human adult epidermal keratinocytes were cultured in EpiLife Medium supplemented with Human Keratinocyte Growth Supplement, 25 U/mL penicillin, 25 μg/mL streptomycin, and 50 μg/mL neomycin. Cultures were grown at 37° C. with 5% CO2.
Cells were seeded in a 96-well microplate (Corning Inc., Corning, N.Y.) and were allowed to attach and proliferate. Once cells reached ˜80% confluency, the media was removed and FAM-siRNA, robed-FAM-siRNA, or benzyl dimethyl alkyl ammonium chloride salts in media was added. Media alone was used as a control. Cells were incubated with test solution for 4 hours at 37° C. and 5% CO2. After incubation, test solutions were removed, cells were washed with HBSS, and fresh media was added to each well. Cells were allowed to proliferate overnight before being assessed for viability using the MTT Cell Proliferation Assay (ATCC, Manassas, Va.). Viability was determined according to the manufacturer's recommended protocol using a SAFIRE, XFLUOR4, V4.50 microplate reader (Tecan Group Ltd, Morrisville, N.Y.).

[2] = chloride salt; Hansch et al. 1995; cited from earlier work

Row | LogPo/w [1] | Structure (SMILES) | toxicity of free salts versus robed with siRNAs (HEKa cells) | Log Po/w, Chloride [2]
1 | 2.14 | CCCCCCCCCCCCCC[N+](C)(C)C.[Br-] | – | –
2 | – | CCCCCCCCCCCCCCCCCC[N+](C)(C)Cc1ccccc1 [BDSA chloride, benzyl dimethyl stearyl ammonium] | more toxic as free salts | 3.23^3
3 | – | CCCCCCCC[N+](C)(C)Cc1ccccc1 [BDOA chloride, benzyl dimethyl octyl ammonium] | more toxic as free salts | –
4 | – | CCCCCCCCCCCCCC[N+](C)(C)Cc1ccccc1 [BDTA chloride, benzyl dimethyl tetradecyl ammonium] | more toxic as free salts | 1.81^2
5 | −3.32 | C[N+](C)(C)CCO | – | –
